According to ChEMBL document CHEMBL3272203, “Phosphorus-nitrogen compounds. 22. Synthesis and antitumor activity of arylsulfonylhydrazone analogues” (J Med Chem, 1978):

Key:
[1] = Metal chelating activity of the compound assessed as Fe2+-complex formation by absorbance analysis; assay type: physicochemical
[2] = Metal chelating activity of the compound assessed as cupric ion complex formation by absorbance analysis; assay type: physicochemical
[3] = Metal chelating activity of the compound assessed as Co2+-complex formation by absorbance analysis; assay type: physicochemical
Ehrlich [4] = assay: Antitumor activity against mouse Ehrlich ascites carcinoma cells allografted in mouse assessed as host survival time at 100 mg/kg administered qd for 6 days beginning 24 hrs after tumor implantation relative to control; assay type: functional
Ehrlich [5] = assay: Antitumor activity against mouse Ehrlich ascites carcinoma cells allografted in mouse assessed as host survival time at 40 mg/kg administered qd for 6 days beginning 24 hrs after tumor implantation relative to control in presence of 8 mg/kg CuCl2; assay type: functional
P388 [6] = assay: Antitumor activity against mouse P388 cells allografted in mouse assessed as host survival time at 100 mg/kg administered qd for 9 days beginning 24 hrs after tumor implantation relative to control; assay type: functional
P388 [7] = assay: Antitumor activity against mouse P388 cells allografted in mouse assessed as host survival time at 40 mg/kg administered qd for 9 days beginning 24 hrs after tumor implantation relative to control in presence of 8 mg/kg CuCl2; assay type: functional
Sarcoma-180 [8] = assay: Antitumor activity against mouse Sarcoma 180 cells allografted in mouse assessed as host survival time at 40 mg/kg administered qd for 6 days beginning 24 hrs after tumor implantation relative to control in presence of 8 mg/kg CuCl2; assay type: functional
Sarcoma-180 [9] = assay: Antitumor activity against mouse Sarcoma 180 cells allografted in mouse assessed as host survival time at 100 mg/kg administered qd for 6 days beginning 24 hrs after tumor implantation relative to control; assay type: functional
Sarcoma-180 [10] = assay: Antitumor activity against mouse Sarcoma 180 cells allografted in mouse assessed as host survival time at 50 mg/kg administered qd for 6 days beginning 24 hrs after tumor implantation relative to control in presence of 8 mg/kg CuCl2; assay type: functional
Ehrlich [11] = assay: Antitumor activity against mouse Ehrlich ascites carcinoma cells allografted in mouse assessed as host survival time at 50 mg/kg administered qd for 6 days beginning 24 hrs after tumor implantation relative to control in presence of 8 mg/kg CuCl2; assay type: functional
P388 [12] = assay: Antitumor activity against mouse P388 cells allografted in mouse assessed as host survival time at 50 mg/kg administered qd for 9 days beginning 24 hrs after tumor implantation relative to control in presence of 8 mg/kg CuCl2; assay type: functional
[13] = Octanol-water partition coefficient, log P of the compound; assay type: physicochemical
[14] = Metal chelating activity of the compound assessed as cupric ion complex formation at drug:cupric chloride ratio of 2:1 by absorbance analysis; assay type: physicochemical
[15] = Metal chelating activity of the compound assessed as cupric ion complex formation at drug:cupric chloride ratio of 1:1 by absorbance analysis; assay type: physicochemical

For `CCOP(=O)(N/N=C/c1cccc[n+]1[O-])OCC`, the Activity [1] was “Not Active”, the Activity [2] was “Not Active” and the Activity [3] was “Not Active”. It also gave a T/C (Ehrlich [4]) of 160%, a T/C (Ehrlich [5]) of 98% and a T/C (P388 [6]) of 108%. For the same compound, the T/C (P388 [7]) was 78%.
In the case of `[O-][n+]1ccccc1/C=N/NP(=S)(Oc1ccccc1)Oc1ccccc1`, the T/C (Sarcoma-180 [8]) is reported as 106%, the Activity [1] is reported as “Not Active” and the Activity [3] is reported as “Not Active”. The T/C (Sarcoma-180 [9]) was 93%, the T/C (Ehrlich [4]) was 144% and the T/C (Ehrlich [5]) was 204%. It also gave a T/C (P388 [6]) of 113% and a T/C (P388 [7]) of 94%.
In the case of `[O-][n+]1ccccc1/C=N/NP(=S)(N/N=C/c1cccc[n+]1[O-])c1ccccc1`, the Activity [1] is reported as “Not Active”, the Activity [3] is reported as “Not Active” and the T/C (Sarcoma-180 [10]) is reported as 106%. The T/C (Ehrlich [11]) was 204%, the T/C (Sarcoma-180 [9]) was 79% and the T/C (Ehrlich [4]) was 104%. It also gave a T/C (P388 [12]) of 87% and a T/C (P388 [6]) of 114%.
For `CCOP(=S)(N/N=C/c1cccc[n+]1[O-])OCC`, the T/C (Sarcoma-180 [8]) was 126%, the Activity [1] was “Not Active” and the Activity [3] was “Not Active”. It also gave a T/C (Sarcoma-180 [9]) of 96%, a T/C (Ehrlich [4]) of 108% and a T/C (Ehrlich [5]) of 135%. For the same compound, the T/C (P388 [6]) was 111% and the T/C (P388 [7]) was 73%.
For `[O-][n+]1ccccc1/C=N/NP(=S)(N/N=C/c1cccc[n+]1[O-])Oc1ccccc1`, the T/C (Sarcoma-180 [8]) was 85%, the Activity [1] was “Not Active” and the Activity [3] was “Not Active”. It also gave a logP [13] of 1.28, a T/C (Sarcoma-180 [9]) of 89% and a T/C (Ehrlich [4]) of 123%. The T/C (Ehrlich [5]) was 166%, the T/C (P388 [6]) was 103% and the T/C (P388 [7]) was 89%.
`S=P(N/N=C/c1ccccn1)(N/N=C/c1ccccn1)c1ccccc1` showed a T/C (Sarcoma-180 [10]) of 87%, a T/C (Ehrlich [11]) of 150% and a T/C (Sarcoma-180 [9]) of 81%. For the same compound, the T/C (Ehrlich [4]) was 190%, the T/C (P388 [12]) was 95% and the T/C (P388 [6]) was 108%.
In the case of `O=P(N/N=C/c1ccccn1)(Oc1ccccc1)Oc1ccccc1`, the Activity [14] is reported as “Active”, the T/C (P388 [6]) is reported as 117% and the T/C (P388 [7]) is reported as 92%.
Compound `O=P(N/N=C/c1cccc[n+]1[O-])(Oc1ccccc1)Oc1ccccc1` has a T/C (P388 [12]) of 95% and a T/C (P388 [6]) of 111%.
For `S=P(N/N=C/c1ccccn1)(N/N=C/c1ccccn1)Oc1ccccc1`, the T/C (Sarcoma-180 [8]) was 141%, the logP [13] was 1.62 and the T/C (Sarcoma-180 [9]) was 93%. The T/C (Ehrlich [4]) was 114%, the T/C (Ehrlich [5]) was 269% and the T/C (P388 [6]) was 87%. For the same compound, the T/C (P388 [7]) was 97%.
For `O.O=P(O)(N/N=C/c1cccc[n+]1[O-])Oc1ccccc1`, the T/C (Sarcoma-180 [8]) was 87%, the Activity [1] was “Not Active” and the Activity [3] was “Active”. For the same compound, the Activity [14] was “Active”, the logP [13] was -0.76 and the T/C (Sarcoma-180 [9]) was 107%. It also gave a T/C (Ehrlich [4]) of 118% and a T/C (Ehrlich [5]) of 164%.
For `[O-][n+]1ccccc1`, the logP [13] was -1.69.
For `O.O=P(O)(N/N=C/c1ccccn1)Oc1ccccc1`, the T/C (Sarcoma-180 [8]) was 79%, the Activity [1] was “Not Active” and the Activity [15] was “Active”. The Activity [3] was “Active”, the T/C (Sarcoma-180 [9]) was 95% and the T/C (Ehrlich [4]) was 115%. For the same compound, the T/C (Ehrlich [5]) was 163%, the T/C (P388 [6]) was 103% and the T/C (P388 [7]) was 99%.
Compound `O=P1(N(CCCl)CCCl)NCCCO1` (centres undefined) [CYCLOPHOSPHAMIDE ANHYDROUS] has a logP [13] of 0.63.
Compound `S=P(N/N=C/c1ccccn1)(Oc1ccccc1)Oc1ccccc1` has a T/C (P388 [6]) of 102% and a T/C (P388 [7]) of 94%.
